Assay: Solubility of FDKP as a function of pH
Assay type: physicochemical

O=C(O)/C=C/C(=O)NCCCCC1NC(=O)C(CCCCNC(=O)/C=C/C(=O)O)NC1=O (centres unmarked) [FDKP, bis-3,6-(N-fumaryl-4-aminobutyl)-2,5-diketo-diketopiperazine]
solubility (at neutral or basic pH): readily soluble | solubility (in acid): low solubility

Source: patent US8778403B2, “Diketopiperazine microparticles with defined specific surface areas” (MannKind Corporation, priority 2009, dated 2014)
